Results taken from patent publication US10093630B2, “Pyrazole compounds and methods of making and using same” (ABIDE THERAPEUTICS, INC., priority 2014, dated 2018).
Like-named read-outs stand apart in the source and are kept apart here.

How the values were obtained:
Assay in all cases: In vitro competitive activity-based protein profiling (gel-based, FP-Rh or HT-01 probe)
Assay type in all cases: biochemical
[1] = biological target: T1, FAAH (Mus musculus, UniProt O08914); settings: for inhibition at 1 µM: 1 μM inhibitor, read-out: % Inhibition at 1 μM, B = FAAH; for inhibition at 10 µM: 10 μM inhibitor, read-out: % Inhibition at 10 μM, B = FAAH; for IC50: mouse brain membrane fraction or cell lysates, 30 min preincubation at 37° C., read-out: Mouse (IC50 value, nM) FAAH
T1 construct: Proteomes (mouse brain membrane fraction or cell lysates); from tissue; host or cells: mouse brain membrane fraction (or cell lysates, not specified)
T1 sequence (O08914 1-579): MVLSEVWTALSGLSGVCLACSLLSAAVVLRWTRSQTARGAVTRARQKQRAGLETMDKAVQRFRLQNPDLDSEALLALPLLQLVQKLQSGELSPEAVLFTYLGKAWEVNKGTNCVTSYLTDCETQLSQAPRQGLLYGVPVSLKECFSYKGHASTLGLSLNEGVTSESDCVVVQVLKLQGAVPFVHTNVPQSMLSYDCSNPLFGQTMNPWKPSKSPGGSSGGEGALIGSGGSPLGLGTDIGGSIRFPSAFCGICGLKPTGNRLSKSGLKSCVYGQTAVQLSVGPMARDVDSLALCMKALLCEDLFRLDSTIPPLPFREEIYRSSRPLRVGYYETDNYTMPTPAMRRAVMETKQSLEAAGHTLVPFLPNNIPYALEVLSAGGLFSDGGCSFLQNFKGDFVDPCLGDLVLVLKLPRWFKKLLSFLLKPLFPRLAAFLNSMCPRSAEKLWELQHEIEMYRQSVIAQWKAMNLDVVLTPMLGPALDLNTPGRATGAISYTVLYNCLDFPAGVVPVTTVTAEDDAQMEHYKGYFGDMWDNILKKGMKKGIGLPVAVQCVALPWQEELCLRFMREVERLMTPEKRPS
Procedure: (§1) In Vitro Competitive Activity-Based Protein Profiling.
(§2) Proteomes (mouse brain membrane fraction or cell lysates) (50 μL, 1.0 mg/mL total protein concentration) were preincubated with varying concentrations of inhibitors at 37° C. After 30 min, FP-Rh or HT-01 ([…], 50 μM in DMSO) was added and the mixture was incubated for another 30 min at 37° C. Reactions were quenched with SDS loading buffer (15 μL—4×) and run on SDS-PAGE. Following gel imaging, serine hydrolase activity was determined by measuring fluorescent intensity of gel bands corresponding to MAGL, ABHD6, FAAH, and PLA2G7 using ImageJ 1.43u software.

[2] = biological target: T2, ABHD6 (Mus musculus, UniProt Q8R2Y0); settings: for inhibition at 1 µM: 1 μM inhibitor, read-out: % Inhibition at 1 μM, C = ABHD6; for inhibition at 10 µM: 10 μM inhibitor, read-out: % Inhibition at 10 μM, C = ABHD6; for IC50: mouse brain membrane fraction or cell lysates, 30 min preincubation at 37° C., read-out: Mouse (IC50 value, nM) ABHD6
T2 construct: Proteomes (mouse brain membrane fraction or cell lysates); from tissue; host or cells: mouse brain membrane fraction (or cell lysates, not specified)
T2 sequence (Q8R2Y0 1-336): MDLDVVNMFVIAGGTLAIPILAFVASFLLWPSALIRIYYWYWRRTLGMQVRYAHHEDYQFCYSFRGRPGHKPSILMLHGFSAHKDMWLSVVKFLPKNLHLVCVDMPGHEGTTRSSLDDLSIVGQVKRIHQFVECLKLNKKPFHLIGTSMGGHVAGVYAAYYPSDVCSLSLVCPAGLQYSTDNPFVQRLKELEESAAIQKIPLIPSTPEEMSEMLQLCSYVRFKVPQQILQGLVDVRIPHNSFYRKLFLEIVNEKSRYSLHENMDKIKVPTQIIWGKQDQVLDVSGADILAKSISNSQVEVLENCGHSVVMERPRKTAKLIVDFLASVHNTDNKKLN
Procedure: as §1, §2

[3] = biological target: T3, PLA2G7 (Mus musculus, UniProt Q60963); settings: for inhibition at 1 µM: 1 μM inhibitor, read-out: % Inhibition at 1 μM, D = PLA2G7; for inhibition at 10 µM: 10 μM inhibitor, read-out: % Inhibition at 10 μM, D = PLA2G7; for IC50: mouse brain membrane fraction or cell lysates, 30 min preincubation at 37° C.
T3 construct: Proteomes (mouse brain membrane fraction or cell lysates); from tissue; host or cells: mouse brain membrane fraction (or cell lysates, not specified)
T3 sequence (Q60963 22-440): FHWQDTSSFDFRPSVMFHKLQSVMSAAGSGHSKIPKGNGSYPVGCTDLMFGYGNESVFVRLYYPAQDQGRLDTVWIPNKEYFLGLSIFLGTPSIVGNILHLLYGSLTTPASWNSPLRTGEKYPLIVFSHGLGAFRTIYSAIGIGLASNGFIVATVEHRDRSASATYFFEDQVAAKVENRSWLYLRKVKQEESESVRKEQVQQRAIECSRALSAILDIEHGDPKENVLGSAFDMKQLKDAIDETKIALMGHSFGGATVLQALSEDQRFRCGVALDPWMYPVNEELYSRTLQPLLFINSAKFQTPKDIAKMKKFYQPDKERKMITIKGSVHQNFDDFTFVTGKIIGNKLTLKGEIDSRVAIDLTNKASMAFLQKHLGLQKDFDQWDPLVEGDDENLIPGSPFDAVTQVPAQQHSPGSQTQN
Procedure: as §1, §2

[4] = biological target: T4, MAGL (Mus musculus, UniProt O35678); settings: for inhibition at 1 µM: 1 μM inhibitor; for inhibition at 10 µM: 10 μM inhibitor; for IC50: mouse brain membrane fraction or cell lysates, 30 min preincubation at 37° C., read-out: Mouse (IC50 value, nM) MAGL
T4 construct: Proteomes (mouse brain membrane fraction or cell lysates); from tissue; host or cells: mouse brain membrane fraction (or cell lysates, not specified)
T4 sequence (O35678 1-303): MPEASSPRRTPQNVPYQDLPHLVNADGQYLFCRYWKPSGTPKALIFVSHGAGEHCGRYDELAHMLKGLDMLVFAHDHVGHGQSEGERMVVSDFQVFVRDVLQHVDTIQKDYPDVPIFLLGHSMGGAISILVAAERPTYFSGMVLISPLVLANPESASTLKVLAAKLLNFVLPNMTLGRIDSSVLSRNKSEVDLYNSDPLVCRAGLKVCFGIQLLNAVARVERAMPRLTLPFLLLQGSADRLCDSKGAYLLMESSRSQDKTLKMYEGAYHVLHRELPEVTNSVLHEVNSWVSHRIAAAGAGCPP
Procedure: as §1, §2

Structure (SMILES) | inhibition at 1 µM [1] | inhibition at 10 µM [1] | inhibition at 1 µM [2] | inhibition at 10 µM [2] | inhibition at 1 µM [3] | inhibition at 10 µM [3] | inhibition at 1 µM [4] | inhibition at 10 µM [4] | IC50 [1] | IC50 [2] | IC50 [3] | IC50 [4] | inhibition at 1 µM ([1]; gel-based competitive ABPP) | inhibition at 1 µM ([2]; gel-based competitive ABPP) | inhibition at 1 µM ([3]; gel-based competitive ABPP) | inhibition at 1 µM ([4]; gel-based competitive ABPP)
CCN(Cc1ccccc1C)C(=O)n1cc(Cl)cn1 [Example 132, 4-Chloro-N-(2-methylbenzyl)-N-ethyl-1H-pyrazole-1-carboxamide] | < 25% | – | < 25% | – | < 25% | – | < 25% | – | – | – | – | – | – | – | – | –
O=C(N1CCN(Cc2ccccc2)CC1)n1cccn1 [Example 7, (4-Benzylpiperazin-1-yl)(1H-pyrazol-1-yl)methanone] | < 25% | > 75% | < 25% | > 75% | < 25% | < 25% | > 75% | > 75% | – | – | – | – | – | – | – | –
O=C(c1cnn(C(=O)N2CCN(Cc3ccncn3)CC2)c1)N1CCC1 [Example 90, Azetidin-1-yl(1-(4-(pyrimidin-4-ylmethyl)piperazine-1-carbonyl)-1H-pyrazol-4-yl)methanone] | – | 25 to 75% | < 25% | > 75% | < 25% | > 75% | – | < 25% | – | – | – | – | – | – | – | –
O=C(N1CCN(Cc2cncnc2)CC1)n1cc(-c2ccccc2)cn1 [Example 64, (4-Phenyl-1H-pyrazol-1-yl)(4-(pyrimidin-5-ylmethyl)piperazin-1-yl)methanone] | – | < 25% | > 75% | > 75% | > 75% | > 75% | – | < 25% | – | – | – | – | – | – | – | –
Cc1cc(-c2ccccc2)ccc1CN1CCN(C(=O)n2cc(C(=O)N3CCCC3)cn2)CC1 [Example 85, (4-((3-Methyl-[1,1′-biphenyl]-4-yl)methyl)piperazin-1-yl)(4-(pyrrolidine-1-carbonyl)-1H-pyrazol-1-yl)methanone] | > 75% | > 75% | > 75% | > 75% | < 25% | > 75% | > 75% | > 75% | < 100 nM | 100 to 1000 nM | – | 100 to 1000 nM | – | – | – | –
CC(C)(C)OC(=O)N1CCCN(C(=O)n2cc(C#N)cn2)CC1 [Example 27, tert-Butyl 4-(4-cyano-1H-pyrazole-1-carbonyl)-1,4-diazepane-1-carboxylate] | > 75% | > 75% | > 75% | > 75% | > 75% | > 75% | > 75% | > 75% | – | – | – | – | – | – | – | –

Next, values leading:

inhibition at 1 µM [1] | inhibition at 10 µM [1] | inhibition at 1 µM [2] | inhibition at 10 µM [2] | inhibition at 1 µM [3] | inhibition at 10 µM [3] | inhibition at 1 µM [4] | inhibition at 10 µM [4] | IC50 [1] | IC50 [2] | IC50 [3] | IC50 [4] | inhibition at 1 µM ([1]; gel-based competitive ABPP) | inhibition at 1 µM ([2]; gel-based competitive ABPP) | inhibition at 1 µM ([3]; gel-based competitive ABPP) | inhibition at 1 µM ([4]; gel-based competitive ABPP) | Structure (SMILES)
> 75% | > 75% | < 25% | > 75% | < 25% | > 75% | < 25% | > 75% | – | – | – | – | – | – | – | – | N#Cc1cnn(C(=O)N2CCCC2)c1 [Example 203, 1-(Pyrrolidine-1-carbonyl)-1H-pyrazole-4-carbonitrile]
< 25% | < 25% | < 25% | < 25% | < 25% | > 75% | < 25% | < 25% | – | – | – | – | – | – | – | – | CC(=O)N1CCN(C(=O)n2cc(Cl)cn2)CC1 [Example 183, 1-(4-(4-Chloro-1H-pyrazole-1-carbonyl)piperazin-1-yl)ethanone]
> 75% | – | > 75% | – | < 25% | – | > 75% | – | < 100 nM | 100 to 1000 nM | > 1000 nM | < 100 nM | – | – | – | – | O=C(N1CCN(Cc2cccc(Cl)c2)CC1)n1cc(Cl)cn1 [Example 225, (4-Chloro-1H-pyrazol-1-yl)(4-(3-chlorobenzyl)piperazin-1-yl)methanone]
– | – | – | – | – | – | – | – | < 100 nM | < 100 nM | < 100 nM | < 100 nM | > 75% | > 75% | > 75% | > 75% | O=C(N1CCN(Cc2cccc(F)c2)CC1)n1cc(C(F)(F)F)cn1 [Example 269, (4-(3-Fluorobenzyl)piperazin-1-yl)(4-(trifluoromethyl)-1H-pyrazol-1-yl)methanone]
> 75% | > 75% | > 75% | > 75% | > 75% | > 75% | > 75% | > 75% | – | – | – | – | – | – | – | – | N#Cc1cnn(C(=O)N2CCN(c3ccccc3)CC2)c1 [Example 206, 1-(4-Phenylpiperazine-1-carbonyl)-1H-pyrazole-4-carbonitrile]
– | – | – | – | – | – | – | – | – | – | – | – | < 25% | < 25% | < 25% | < 25% | CCN(Cc1cccc(OC)c1)C(=O)n1cc(C)cn1 [Example 251, N-Ethyl-N-(3-methoxybenzyl)-4-methyl-1H-pyrazole-1-carboxamide]
> 75% | > 75% | > 75% | > 75% | 25 to 75% | < 25% | > 75% | > 75% | – | – | – | – | – | – | – | – | CN(Cc1cccc(-c2ccncc2)c1)C(=O)n1cc(C#N)cn1 [Example 221, 4-Cyano-N-methyl-N-(3-(pyridin-4-yl)benzyl)-1H-pyrazole-1-carboxamide]
< 25% | > 75% | < 25% | 25 to 75% | > 75% | > 75% | 25 to 75% | > 75% | – | – | – | – | – | – | – | – | O=C(c1ccccc1)N1CCN(C(=O)n2cc(Cl)cn2)CC1 [Example 187, (4-Benzoylpiperazin-1-yl)(4-chloro-1H-pyrazol-1-yl)methanone]
– | – | – | – | – | – | – | – | – | – | – | – | < 25% | < 25% | < 25% | > 75% | Cc1cnn(C(=O)N2CCCN(Cc3cccc(Oc4ccccc4)c3)CC2)c1 [Example 298, (4-Methyl-1H-pyrazol-1-yl)(4-(3-phenoxybenzyl)-1,4-diazepan-1-yl)methanone]
